Measured values as given in patent US10613105B2, “Competitive immunoassay test system for detecting a pyrogen” (FRAUNHOFER-GESELLSCHAFT ZUR FORDERUNG DER ANGEWANDTEN …, priority 2014, dated 2020).

Molecular target: T1, TLR4 (Homo sapiens, UniProt O00206)
T1 construct: purchased Hölzel Diagnostik GmbH 10146-H08B-100; host or cells: baculovirus insect cells
Assay: Surface plasmon resonance spectroscopy (Biacore T200), TLR4 immobilized on NTA sensor chip via his-tag
Format: binding
Settings: for Ka in 1/M / Kd: HBS-P+ with 50 μM EDTA, 20° C., 10 μL/min, 5 concentrations
Description: The affinity of a ligand to its receptor describes the tendency thereof to enter into a bond with the receptor. The greater affinity, the greater the association constant Ka is. The strength of the receptor/ligand interaction can be determined experimentally with the aid of surface plasmon resonance spectroscopy (Biacore T200, GE Healthcare) and quantified by the so-called dissociation constant (Kd). Kd is thereby the reciprocal value of Ka, a thermodynamic value, which indicates which portion of the ligand is bound on average to the receptor protein and has the dimension of a concentration. The Biacore chip system is based on a glass slide with a gold film in a flow cell. TLR4 was immobilized on the NTA sensor chip via its his-tag in accordance with the manufacturer's protocol and the to-be-tested ligands, control compounds and LPS were passed over it dissolved in HBS-P+ with 50 μM EDTA at 20° C. with a flow rate of 10 μL/min in respectively 5 concentrations. The bond with TLR4 is measured as a change in the refractive index in the flow cell as compared to a reference cell as a response difference in RU. 1 RU corresponds thereby to 1 pg of bound ligand. After ligand injection, buffer is used for rinsing in order to ideally recreate the initial state, complete disassociation of the ligand.

T1 sequence (O00206 24-631 limits assumed): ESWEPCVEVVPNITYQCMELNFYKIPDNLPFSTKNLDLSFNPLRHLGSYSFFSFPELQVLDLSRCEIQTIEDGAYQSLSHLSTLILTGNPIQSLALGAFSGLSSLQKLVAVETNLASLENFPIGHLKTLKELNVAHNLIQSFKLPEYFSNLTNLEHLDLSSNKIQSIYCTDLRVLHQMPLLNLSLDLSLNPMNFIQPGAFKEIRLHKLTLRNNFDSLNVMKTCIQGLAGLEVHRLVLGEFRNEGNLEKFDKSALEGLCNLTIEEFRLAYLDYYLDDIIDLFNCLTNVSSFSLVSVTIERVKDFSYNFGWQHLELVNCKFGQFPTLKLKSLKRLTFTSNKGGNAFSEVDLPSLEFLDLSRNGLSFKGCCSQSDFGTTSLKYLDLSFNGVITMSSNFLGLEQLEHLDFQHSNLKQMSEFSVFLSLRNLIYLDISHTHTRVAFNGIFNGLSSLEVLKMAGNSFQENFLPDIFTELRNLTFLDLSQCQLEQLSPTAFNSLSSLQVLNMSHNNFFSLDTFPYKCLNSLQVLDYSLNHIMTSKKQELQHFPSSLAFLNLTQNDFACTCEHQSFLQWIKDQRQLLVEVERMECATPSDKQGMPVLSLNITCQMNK

Row | Ka in 1/M | Kd [nM] | reduction of binding affinity for TLR4 by the TAMRA labeling (T5635346 with vs without TAMRA labeling) [fold] | Compound
1 | 9,803,922 1/M | 102 |  | CC(C)CN1CCOC(CNC(=O)Nc2ccc3c(c2)OCO3)C1 (centres unmarked) [T5874283, 1-(1,3-benzodioxol-5-yl)-3-[[4-(2-methylpropyl)morpholin-2-yl]methyl]urea]
2 | 4,135,649 1/M | 242 | 40 | Cc1ccc(C(=O)N2CCOCC2)c(O)c1 [T5635346, (2-hydroxy-4-methylphenyl)-morpholin-4-ylmethanone]
